Structures are written as SMILES.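 A five-concentration, 48-hour dose response in 96-well plates underlies each endpoint, interpolated linearly between surrounding concentrations. At the GI50, growth is halved. TGI denotes the concentration required for complete inhibition of growth.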 Bounds are passed on as bounds.

The test system of the first assay is SK-MEL-5 melanoma. In words: NCI tumour cell line growth inhibition, 48 h.
`C=C(C)C1CC2C(C)=C(OC(C)=O)C1n1c(=O)c3cc4ccccc4cc3c(=O)n12` (configuration not stated) gave a TGI of over 100 µM.
Turning to `COc1cc(/C=C2\CN(C)CC3=C2Nc2nc(SC)[nH]c(=O)c2C3c2cc(OC)c(OC)c(OC)c2)cc(OC)c1OC` (configuration not stated), the GI50 was 2.83 µM and the TGI is 11.9 µM.
Take `O=C(CC(C(=O)c1cccs1)c1ccc2c(c1)OCO2)c1ccc(Br)cc1` (configuration not stated): the TGI was over 100 µM.
Take `C[C@]12CC[C@@H]3c4ccc(O)c([N+](=O)[O-])c4CC[C@H]3[C@@H]1CC[C@@H]2NS(=O)(=O)c1ccc(C(F)(F)F)cc1`: the GI50 was 1.72 µM and the TGI worked out at 3.28 µM.
On to `COC(=O)C1=C(OC(=O)c2ccc(Cl)cc2)C(C(=O)OC)[C@@]2(O)[C@@H](C(=O)OC)C(c3ccccc3C(F)(F)F)C[C@@H]1[C@@H]2C(=O)OC` (some centres not stated), for which the GI50 was 3.46 µM and the TGI is 12.4 µM.
Regarding `Cc1c(C)c2cc3c(=O)ccoc3c(C)c2oc1=O`, the TGI was over 100 µM.
On the same count and under the same terms, next, `N#Cc1ccc(-c2nc(C#N)c(N)o2)cc1`: over 10 µM.

A further assay has as its system U251 CNS. Briefly: NCI tumour cell line growth inhibition, 48 h.
For `COc1cc(-c2csc(NC(=O)c3cc(C(F)(F)F)cc(C(F)(F)F)c3)n2)cc(OC)c1OC`, the GI50 was 2.7 µM and the TGI was over 100 µM.
`CC(C)=CCC12Cc3ccc(O)cc3C(C(C)CN1)C2C` (configuration not stated) yielded a TGI of over 100 µM.
`CC[N+]1(C)CCC(O)(c2ccc(C)cc2)C(C(=O)c2ccc(C)cc2)C1` (configuration not stated): the TGI was over 100 µM.
Turning to `CC(=O)c1cccc(N(/C=C/C(=O)C(F)(F)F)CC(=O)c2ccc(Cl)cc2)c1`, the GI50 was over 100 µM and the TGI was over 100 µM.
Regarding `COc1ccc(Cl)cc1Nc1nc(C(F)(F)F)ccc1C(=O)NN`, the GI50 was 2.43 µM and the TGI is over 100 µM.
In the case of `CC(C)c1ccc2nc3ccc(C(=O)NCCN(C)C)cn3c(=O)c2c1`, the TGI is 39.9 µM.
With `C#C[C@]1(O)CC[C@H]2[C@@H]3CC=C4c5nc(Nc6ccccn6)sc5CC[C@]4(C)[C@H]3CC[C@@]21C`, the GI50 was 0.541 µM and the TGI was 2.13 µM.
In turn, `O=c1oc2ccccc2c(O)c1C=NC(=S)c1ccncc1` came in with a TGI of over 100 µM.
Same read-out and setting: next, `CC(O)CNC1=CC(=O)C(=O)c2ccccc21` (configuration not stated): 30.6 µM.
Same read-out and setting: next, `CC1=C(C(=O)NC2CCCCC2)CC(C(=O)NC2CCCCC2)=C(C)N1`: over 100 µM; `Cc1cc2c(C(C)C)c(O)c(O)c(C=Nc3cc(C(F)(F)F)ccc3Cl)c2c(O)c1-c1c(C)cc2c(C(C)C)c(O)c(O)c(C=Nc3cc(C(F)(F)F)ccc3Cl)c2c1O`: 72.2 µM; `O=c1nc(-c2ccccc2)c2c3c(cccn13)CCC2`: over 100 µM.
The same measure, in the same setting: next, `CC(CO)[C@H]1OC(=O)C=C2[C@@]13O[C@@H]3[C@H]1OC(=O)[C@@]3(C)[C@H]4O[C@H]4C[C@@]2(C)[C@@H]13` (some centres not stated): over 100 µM; `O=C(c1ccccc1)c1c(CC(O)c2cccnc2)n(C(=O)c2ccccc2)c2ccccc12` (configuration not stated): 30.7 µM.
For `C=C(C)C1CC2C(C)=C(OC(C)=O)C1n1c(=O)c3cc4ccccc4cc3c(=O)n12` (configuration not stated), the TGI is over 100 µM.
`COc1cc(/C=C2\CN(C)CC3=C2Nc2nc(SC)[nH]c(=O)c2C3c2cc(OC)c(OC)c(OC)c2)cc(OC)c1OC` (configuration not stated): the GI50 was 1.76 µM and the TGI was 4.14 µM.
The like results for `COc1cc(Nc2ccnc(N3CCN(c4ccnc5cc(Cl)ccc45)CC3)n2)cc(OC)c1` were, in that order, 1.66 µM and over 26.9 µM.
Turning to `O=C(CC(C(=O)c1cccs1)c1ccc2c(c1)OCO2)c1ccc(Br)cc1` (configuration not stated), the TGI is over 100 µM.
With `C[C@]12CC[C@@H]3c4ccc(O)c([N+](=O)[O-])c4CC[C@H]3[C@@H]1CC[C@@H]2NS(=O)(=O)c1ccc(C(F)(F)F)cc1`, the GI50 was 1.56 µM and the TGI turned out to be 3.13 µM.
The like results for `COC(=O)C1=C(OC(=O)c2ccc(Cl)cc2)C(C(=O)OC)[C@@]2(O)[C@@H](C(=O)OC)C(c3ccccc3C(F)(F)F)C[C@@H]1[C@@H]2C(=O)OC` (some centres not stated) were, in that order, 3.26 µM and 21.4 µM.
As for `Cc1c(C)c2cc3c(=O)ccoc3c(C)c2oc1=O`, the TGI was over 100 µM.

Another assay deals with UACC-62 melanoma. Briefly: NCI tumour cell line growth inhibition, 48 h.
Regarding `CC(C)=CCC12Cc3ccc(O)cc3C(C(C)CN1)C2C` (configuration not stated), the TGI was over 100 µM.
As for `CC[N+]1(C)CCC(O)(c2ccc(C)cc2)C(C(=O)c2ccc(C)cc2)C1` (configuration not stated), the TGI is over 100 µM.
Turning to `CC(=O)c1cccc(N(/C=C/C(=O)C(F)(F)F)CC(=O)c2ccc(Cl)cc2)c1`, the GI50 was over 100 µM and the TGI is over 100 µM.
For `COc1ccc(Cl)cc1Nc1nc(C(F)(F)F)ccc1C(=O)NN`, the GI50 is 4.87 µM and the TGI worked out at 53.5 µM.
In turn, `CC(C)c1ccc2nc3ccc(C(=O)NCCN(C)C)cn3c(=O)c2c1` registered a TGI of 32.3 µM.
With `C#C[C@]1(O)CC[C@H]2[C@@H]3CC=C4c5nc(Nc6ccccn6)sc5CC[C@]4(C)[C@H]3CC[C@@]21C`, the GI50 is 1.15 µM and the TGI stood at 2.68 µM.
Molecule `O=c1oc2ccccc2c(O)c1C=NC(=S)c1ccncc1` yielded a TGI of over 100 µM.
Same read-out and setting: next, `CC(O)CNC1=CC(=O)C(=O)c2ccccc21` (configuration not stated): 26.8 µM; `CC1=C(C(=O)NC2CCCCC2)CC(C(=O)NC2CCCCC2)=C(C)N1`: over 100 µM.
Molecule `Cc1cc2c(C(C)C)c(O)c(O)c(C=Nc3cc(C(F)(F)F)ccc3Cl)c2c(O)c1-c1c(C)cc2c(C(C)C)c(O)c(O)c(C=Nc3cc(C(F)(F)F)ccc3Cl)c2c1O` came in with a TGI of 51.8 µM.
Still for that read-out and setting: next, `O=c1nc(-c2ccccc2)c2c3c(cccn13)CCC2`: over 100 µM.
`CC(CO)[C@H]1OC(=O)C=C2[C@@]13O[C@@H]3[C@H]1OC(=O)[C@@]3(C)[C@H]4O[C@H]4C[C@@]2(C)[C@@H]13` (some centres not stated) yielded a TGI of 7.36 µM.
The same measure, in the same setting: next, `O=C(c1ccccc1)c1c(CC(O)c2cccnc2)n(C(=O)c2ccccc2)c2ccccc12` (configuration not stated): 34.3 µM.
On the same count and under the same terms, the result for `C=C(C)C1CC2C(C)=C(OC(C)=O)C1n1c(=O)c3cc4ccccc4cc3c(=O)n12` (configuration not stated) reads over 100 µM.
With `COc1cc(/C=C2\CN(C)CC3=C2Nc2nc(SC)[nH]c(=O)c2C3c2cc(OC)c(OC)c(OC)c2)cc(OC)c1OC` (configuration not stated), the GI50 was 2.06 µM and the TGI is 5.11 µM.
Regarding `COc1cc(Nc2ccnc(N3CCN(c4ccnc5cc(Cl)ccc45)CC3)n2)cc(OC)c1`, the GI50 is 0.614 µM and the TGI worked out at 3.76 µM.
As for `O=C(CC(C(=O)c1cccs1)c1ccc2c(c1)OCO2)c1ccc(Br)cc1` (configuration not stated), the TGI is over 100 µM.
Turning to `C[C@]12CC[C@@H]3c4ccc(O)c([N+](=O)[O-])c4CC[C@H]3[C@@H]1CC[C@@H]2NS(=O)(=O)c1ccc(C(F)(F)F)cc1`, the GI50 is 1.34 µM and the TGI amounted to 2.78 µM.
On the same counts, the results for `COC(=O)C1=C(OC(=O)c2ccc(Cl)cc2)C(C(=O)OC)[C@@]2(O)[C@@H](C(=O)OC)C(c3ccccc3C(F)(F)F)C[C@@H]1[C@@H]2C(=O)OC` (some centres not stated) are 1.8 µM and 3.65 µM.
Regarding `Cc1c(C)c2cc3c(=O)ccoc3c(C)c2oc1=O`, the TGI was over 100 µM.
As to `N#Cc1ccc(-c2nc(C#N)c(N)o2)cc1`, the TGI is over 10 µM.

Values taken from PubChem BioAssay (NCI).
